Several values for one entry are separate records, joined by “and”; a condition that tells them apart may be missing. Equal entries are not always repeated.
Experiments:
Format in all cases: in vivo, human
[1] = tested on: children with progressive familial intrahepatic cholestasis (PFIC); assay: INDIGO phase 2 open-label efficacy and safety study of maralixibat in children with PFIC
[2] = tested on: children with progressive familial intrahepatic cholestasis (PFIC); assay: as above; remark: listed apart in the source
Source text: The HRQoL used was the […] QUALITY OF LIFE INVENTORY (PedsQL).

[3] = tested on: overweight and obese adults; assay: Dose-ranging phase 1 clinical study (NCT02475317): fecal bile acid excretion with maralixibat and volixibat; conditions: for fBA excretion, mean change from baseline: baseline to day 6 and 7
[4] = tested on: adults with primary sclerosing cholangitis (PSC); assay: CAMEO 14-week single-arm open-label phase 2a study of maralixibat in primary sclerosing cholangitis
Method: Participants were adults aged 18-80 years with a diagnosis of PSC. PSC diagnosis included a documented history of alkaline phosphatase (ALP) levels greater than 1.5 times above the upper limit of normal, biliary obstruction, and histological findings consistent with PSC diagnosis (if previously biopsied). The study enrolled 27 adults.
Efficacy was assessed by measuring at baseline and throughout the study sBA concentration, serum 7αC4 concentration (a marker of de novo bile acid synthesis), serum aoutotaxin concentration, LDL-C concentration, serum total cholesterol concentration, serum liver enzyme concentrations, and pruritus severity. Pruritus severity was determined by calculating Adult Itch Reported Outcome (ITCHRO) weekly sum scores and average daily scores (mean score over a 7-day period). Participants self-reported the ITCHRO daily on a scale 0-10 (0=no pruritus; 10=most severe pruritus).
Outcomes were assessed in the overall study population and in subgroups of participants (A) with any pruritus at baseline or (B) with an ITCHRO average daily score ≥4 out of 10 at baseline. Efficacy endpoints were based on change from baseline to week 14 or early termination (ET) and were analyzed using paired t-tests or Wilcoxon signed rank tests.

[5] = individual participants A-F with ITCHRO daily score ≥4 at baseline, one line per participant
[6] = participants with ITCHRO daily score ≥4 at baseline

**Q.** With `CCCCC1(CCCC)CS(=O)(=O)c2ccc(N(C)C)cc2[C@@H](c2ccc(OCc3ccc(C[N+]45CCN(CC4)CC5)cc3)cc2)[C@H]1O` [maralixibat] as the compound, how does the “Multi-parameter Responders (%)” value ([1]; Moderate PFIC 2 (N = 12)) read?
**A.** The value was “(50%)”.

**Q.** And the “Multi-parameter Responders (%)” value ([1]; Truncating BSEP (N = 6))?
**A.** The value was “(0%)”.

**Q.** What about the multi-parameter response ([1]; all PFIC 1 patients and all patients harboring a truncating ABCB11 mutation) of the same compound?
**A.** The multi-parameter response was “not multi-parameter responders”.

**Q.** What about the “increase in C4 levels relative to baseline” value ([1]; all low-dose responders (280 μg/kg/day), within 13 weeks of first administration) of the same compound?
**A.** The value was “at least 2.5 fold”.

**Q.** And the “serum ALT, AST, and bilirubin concentrations over time” value ([1]; all low-dose responders, within 2-6 months of first administration)?
**A.** Its value is “normalized or only mildly elevated”.

**Q.** What about the “height Z-score” value ([1]; high dose responder, following treatment response on sBA) of the same compound?
**A.** Its value is “increase in height Z-score”.

**Q.** What about the “7αC4:sBA ratio” value ([1]; high-dose responder, upon administration of 560 μg/kg/day) of the same compound?
**A.** Its value is 1770 times baseline.

**Q.** What about the “cholestasis markers after dose increase” value ([1]; low-dose responder losing response in long-term extension, raised to 280 μg/kg BID at 640-730 days) of the same compound?
**A.** Its value is “sBA concentration decreased, severity of pruritus decreased, serum 7αC4 concentration increased, and 7αC4:sBA ratio increased”.

**Q.** And the “7αC4 concentrations at 48 weeks relative to baseline” value ([1]; low-dose responders (range, 3-43))?
**A.** The value was 14 × baseline.

**Q.** And the “growth (height Z-score change from baseline)” value ([1]; low-dose responders, FIG. 4)?
**A.** Its value is “improved growth relative to baseline”.

**Q.** What about the “7αC4:sBA ratio, mean change from baseline at week 48” value ([1]; non-responders (range, 0.43-12)) of the same compound?
**A.** Its value is 1.9 times baseline ratio.

**Q.** And the “duration of maintained response” value ([1]; responders in the INDIGO study)?
**A.** The value was “for over a year and for up to or beyond 5 years”.

**Q.** And the “Response: reduction in BAs” value ([1]; subject 080051-L, mild PFIC 2)?
**A.** Its value is greater than 70%.

**Q.** What about the “response at the higher dose in prior non-responders” value ([1]; three non-truncating PFIC 2 patients without response at 280 μg/kg/day given 560 μg/kg/day) of the same compound?
**A.** The value was “one (mentioned above) responded at the higher dose”.

**Q.** And the “ALT, change from baseline to week 48, mean” value ([1]; week 48)?
**A.** The value was −12 UI/L.

**Q.** What about the “C4, change from baseline to week 48, mean” value ([1]; week 48) of the same compound?
**A.** The value was “+6.0 ng/mL”.

**Q.** What about the “ItchRO(Obs) score, change from baseline to week 48, mean” value ([1]; week 48) of the same compound?
**A.** The value was −1.0.

**Q.** What about the “Total bilirubin, change from baseline to week 48, mean” value ([1]; week 48) of the same compound?
**A.** The value was “+0.8 mg/dL”.

**Q.** What about the “sBA, change from baseline to week 48, mean” value ([1]; week 48) of the same compound?
**A.** The value was -32 µmol/L.

**Q.** What about the “Multi-parameter Responders (n/N)” value ([2]; Mild PFIC 2 (N = 7)) of the same compound?
**A.** The value was 1/7.

**Q.** What about the “Multi-parameter Responders (n/N)” value ([2]; Moderate PFIC 2 (N = 12)) of the same compound?
**A.** The value was 6/12.

**Q.** What about the “Multi-parameter Responders (%)” value ([2]; Non-truncating BSEP (N = 19)) of the same compound?
**A.** The value was “(36.8%)”.

**Q.** And the “Multi-parameter Responders (n/N)” value ([2]; Non-truncating BSEP (N = 19), response = >70% reduction or normalization in sBA and >1.0 reduction or <1.0 ITCHRO(OBS))?
**A.** The value was 7/19.

**Q.** And the “Multi-parameter Responders (n/N)” value ([2]; Truncating BSEP (N = 6))?
**A.** The value was 0/6.

**Q.** And the “7αC4:sBA ratio” value ([2]; high-dose responder, prior to administration of 560 μg/kg/day)?
**A.** The value was 12 times baseline.

**Q.** And the “Response (observed response)” value ([2]; individual PFIC 2 participants, one line per Subject ID of Table 3, (No reponse [sic] / Rapid complete response / Good response), max dose 280 or 560 μg/kg/day)?
**A.** Its value is “Rapid (4×) and No (18×) and Good”.

**Q.** What about the “7αC4:sBA ratio, mean change from baseline at week 48” value ([2]; low-dose responders (range, 5-3982)) of the same compound?
**A.** Its value is 1388 times baseline ratio.

**Q.** What about the “7αC4 concentrations at 48 weeks relative to baseline” value ([2]; non-responders (range, 0.5-6)) of the same compound?
**A.** The value was 1.8 × baseline.

**Q.** What about the “responders in long-term extension” value ([2]; patients having an ABCB11 gene with a truncating mutation) of the same compound?
**A.** Its value is “no patients”.

**Q.** What about the “patients with ≥1.0 pt. reduction in ITCHRO(OBS) score” value ([2]; patients with non-truncating BSEP mutations, FIG. 6) of the same compound?
**A.** The value was 10/19.

**Q.** What about the “sBA levels Normalized (±≤8.5 μmol/L), n” value ([2]; responders (n = 6) by week 48) of the same compound?
**A.** Its value is 4.

**Q.** What about the Response ([2]; subject 016054, moderate PFIC 2, wrapped cell r43-r46 reads 'No response until 560 reached') of the same compound?
**A.** The Response was “No”.

**Q.** And the “PedsQL total score, change from baseline to week 48, mean” value ([2]; week 48)?
**A.** The value was “+8.2”.

**Q.** What about the “fBA excretion, mean change from baseline” value ([3]; 10 mg dose (QD), 7 days) of the same compound?
**A.** The value was 515 µmol.

**Q.** What about the “fBA excretion, mean change from baseline” value ([3]; 20 mg dose (QD), 7 days) of the same compound?
**A.** The value was 532 µmol.

**Q.** What about the “fBA excretion, mean change from baseline” value ([3]; 50 mg BID, 7 days) of the same compound?
**A.** The value was 1251 µmol.

**Q.** And the “fBA excretion, mean change from baseline” value ([3]; 100 mg QD, 7 days)?
**A.** The value was 1144 µmol.

**Q.** And the “fBA excretion, dose dependence” value ([3]; across tested doses, 7 days)?
**A.** The value was “increased in a dose-dependent manner”.

**Q.** What about the treatment-emergent adverse events ([3]; all doses, 7 days) of the same compound?
**A.** The treatment-emergent adverse events was “mild, and none were serious”.

**Q.** And the “Mean serum 7αC4” value ([3]; baseline to day 7, greatest change at maralixibat 50 mg BID)?
**A.** Its value is “increased”.

**Q.** What about the “Mean sBA levels” value ([3]; day 7 versus baseline) of the same compound?
**A.** The value was “not elevated”.

**Q.** What about the tolerability ([4]; adults with PSC, 14 weeks) of the same compound?
**A.** The tolerability was “well tolerated”.

**Q.** And the “participants with worsening of pruritus by >1 point” value ([4]; baseline to week 14)?
**A.** The value was “No participants”.

**Q.** And the “Changes in serum total bilirubin, alanine aminotransferase, aspartate aminotransferase, and alkaline phosphatase concentrations” value ([4]; baseline to week 14/ET)?
**A.** Its value is “not statistically significant”.

**Q.** What about the “ItchRO average daily score (0-10 scale), Change from baseline to week 14/ET” value [4, 5] of the same compound?
**A.** The value was −4.6 and −1.7 and −3.7 (2×) and −9.1 and −4.7.

**Q.** What about the “ItchRO average daily score (0-10 scale), Week 14/ET” value [4, 5] of the same compound?
**A.** Its value is 1.3 and 5.1 and 3.1 and 2.3 and 0 (2×).

**Q.** What about the “Mean conjugated bilirubin levels, increase” value ([4]; overall population) of the same compound?
**A.** The value was 0.19 mg/dL.

**Q.** What about the “total cholesterol, mean change” value ([4]; overall population) of the same compound?
**A.** Its value is -21.2 mg/dL.

**Q.** What about the “ITCHRO weekly sum scores, decrease from baseline” value ([4]; overall population, baseline to week 14/ET, 10 mg/day maintenance) of the same compound?
**A.** Its value is 51%.

**Q.** And the “serum LCL-C concentration, change from baseline” value ([4]; overall population, SD 17.6)?
**A.** Its value is -16.3 mg/dL.

**Q.** And the “serum autotaxin concentration, change from baseline” value ([4]; overall population, SD 319)?
**A.** Its value is -148 ng/mL.

**Q.** And the “Mean levels of 7αC4, increase from baseline” value ([4]; overall, week 14/ET)?
**A.** The value was 130%.

**Q.** What about the “sBA levels, decrease from baseline” value ([4]; overall, week 14/ET) of the same compound?
**A.** The value was 38%.

**Q.** And the “7αC4, mean increase from baseline” value ([4]; overall, week 14/ET, SD 13.6)?
**A.** The value was 11.1 ng/mL.

**Q.** And the “sBA levels, mean change from baseline” value ([4]; overall, week 14/ET, SD 31.4)?
**A.** Its value is -14.8 µmol/L.

**Q.** And the “Mean levels of 7αC4, increase from baseline” value [4, 6]?
**A.** Its value is 107%.

**Q.** What about the “sBA levels, decrease from baseline” value [4, 6] of the same compound?
**A.** The value was 45%.

**Q.** What about the “total cholesterol, mean change” value [4, 6] of the same compound?
**A.** The value was -32.0 mg/dL.

**Q.** And the “ITCHRO weekly sum scores, decrease from baseline” value ([4]; participants with ITCHRO daily score ≥4 out of 10 at baseline (n=6), week 14/ET)?
**A.** The value was 70%.

**Q.** And the “ITCHRO weekly sum scores, decrease from baseline” value ([4]; participants with any pruritus at baseline (n=18), week 14/ET)?
**A.** The value was 53%.

**Q.** And the “participants with ITCHRO average daily score improved by >1 point” value ([4]; week 14/ET)?
**A.** Its value is 29.6%.

**Q.** And the “participants with ITCHRO average daily score improved by >3 points” value ([4]; week 14/ET)?
**A.** The value was 22.2%.

From patent publication US20220133738A1, “GENOTYPE AND DOSE-DEPENDENT RESPONSE TO AN ASBTI IN PATIENTS WITH BILE SALT EXPORT PUMP DEFICIENCY” (MIRUM PHARMACEUTICALS, INC., priority 2019, published 2022)
